The text below walks through data of patent US6683061B1, “Enzyme catalyzed therapeutic activation” (NewBiotics, Inc., priority 1999, dated 2004).

Where two headings read alike, the source gives them in different places. Bounds are passed on as bounds.

For data set [1], the system named is MCF7TDX. Briefly: AlamarBlue cell proliferation assay. The data set is classed as cell-based, human. The following applies: 120 hours drug exposure. The protocol:
(§1) Cells growing exponentially were transferred to 384-well flat bottom tissue culture plates. All cell types were plated at a density of 500 cells per well in 25 μL of complete medium (RPMI 1640+10% fetal bovine serum+antibiotics/antimycotics). After 24 hours (day 0), 25 μL of complete medium containing the compounds over the dose range of 10^−3 to 10^−10 M were added in triplicate. Drug exposure time was 120 hours (day 5), after which growth inhibition was assayed. 5 μL of the redox indicator, alamarBlue, was added to each well (10% v/v). After 4 hours incubation at 37° C., fluorescence was monitored at 535 nm excitation and 595 nm emission.
(§2) Numbering in Tables 5 and 6 refer to the structures, shown infra. Results from testing using the alamarBlue assay are shown in Table 5, and results from crystal violet based assays are shown in Table 6. MCF7-TDX was derived from MCF7 breast tumor cells via selection in cell culture in the presence of Tomudex, a direct inhibitor of TS. Such selection often results in high intracellular levels of TS (Freemantle, S. J. et al. (1995)). Similarly, H630R10 is a 5FU (fluoropyrimidine) resistant colon cancer epithelial cell line derived from H630 colon cancer cells. See, Copur, S. et al. (1995). HT1080, #12, is a fibrosarcoma tumor cell line that expresses high levels of TS via a transgene introduced into HT1080 tumor cells. […]

The subject of a further data set is CCd18co. Kind of data set: Crystal violet cell proliferation inhibition assay. It is filed as cell-based, human. An excerpt:
(§3) Numbering in Tables 5 and 6 refer to the structures, shown infra. Results from testing using the alamarBlue assay are shown in Table 5, and results from crystal violet based assays are shown in Table 6. MCF7-TDX was derived from MCF7 breast tumor cells via selection in cell culture in the presence of Tomudex, a direct inhibitor of TS. Such selection often results in high intracellular levels of TS (Freemantle, S. J. et al. (1995)). Similarly, H630R10 is a 5FU (fluoropyrimidine) resistant colon cancer epithelial cell line derived from H630 colon cancer cells. See, Copur, S. et al. (1995). HT1080, #12, is a fibrosarcoma tumor cell line that expresses high levels of TS via a transgene introduced into HT1080 tumor cells. Normal cell lines used in these assays include CCD18co (normal colon epithelium) and Det551 (normal skin).

The test system of another data set is Det551. Kind of data set: Crystal violet cell proliferation inhibition assay. The data set is classed as cell-based, human.
From the text: as §3

The test system of another data set is HT1080 #12. Kind of data set: Crystal violet cell proliferation inhibition assay. The data set is classed as cell-based. The following applies: crystal violet procedure, Table 7; high TS; read-out: Cytotoxic Activity, TS HT1080 #12.
From the text: as §3

Data set [2] concerns MCF7TDX. Briefly: Crystal violet cell proliferation inhibition assay. The following applies: read-out: Cytotoxic Activity, MCF7TDX.
Experimental: The ability of the test compounds to block proliferation of cells was determined by the crystal violet procedure.
Compounds were dissolved in dimethyl sulfoxide to a concentration of 1M. They were further diluted as necessary into DMEM cell culture medium, and subsequently into the first wells of the 96-well microtiter plate. Each concentration was tested in triplicate on the target cell line. Compound concentrations from 1 μM to 3000 μM were tested. Cells were incubated with compound for 72 hours, the plates were washed, and the cells fixed with methanol and stained with crystal violet as described in Sugarman, B. J. et al. (1985); and Antelman, D. et al. (1995).
The ability of each isolated compound to block cell proliferation was then determined by the crystal violet procedure.
The first two cell lines, TS HT1080 #12 and MCF7TDX express high levels of TS, while the other two, CCD18co and Det551, are normal cells.
Another data set has as its system normal and tumor cells. Briefly: Cell proliferation assays (alamarBlue, crystal violet), results stated in words. To be noted: summary of Tables 5-7. It is filed as cell-based, human. As for the experimental part:
as §1
The data in both Tables 5 and 6 indicate that most compounds are active as phosphoramidates and nucleosides. […] Cytotoxicity results with the nucleosides, especially BVdU, NB1020™ (ClVdU) and NB1024™, are surprising since the literature teaches that 5-substituted compounds like BVdU are not efficiently monophosphorylated by human cells unless they express viral thymidine kinase. See, Balzarini, J. et al. (1985) and De Clerq, E. et al. (1997). These authors have proposed that once phosphorylated by the herpesvirus-encoded TK, the 5-substituted nucleotide derivative can bind to the TS enzyme and inactivate it. […] Alternatively, some tumor cells may have an unusually high amount, or form the normal TK enzyme (Suki, S. et al. (1995); and Romain, S. et al. (1995)), leading to a low, but sufficient activation of nucleosides to their corresponding monophosphates.
A general note: Resazurin is reduced to fluorescent resorufin, in cell work by metabolically active cells.

Data set [3] in a line: Crystal violet cell proliferation inhibition assay. It is filed as cell-based, human. To be noted: human, crystal violet procedure, Table 7, normal cells.
From the text: as §3

The test system of data set [4] is MCF7TDX. Kind of data set: Amount of nucleoside and monophosphate in cells (HPLC of lysates). The following applies: 100 μm BVdU, 2 days treatment. It is filed as cell-based, human. The protocol: (§4) Cells were incubated in complete media with 100 μm BVdU.
In a further data set the test system is MCF7. The description is as above. The data set is classed as cell-based, human. The following applies: 100 μm BVdU, 2 days treatment. The protocol:
as §4

Data set [5] concerns H630R10. Described as above. It is filed as cell-based, human. The following applies: 100 μm BVdU, 2 days treatment. As for the experimental part: as §4
Data set [6] concerns H630R10. Kind of data set: AlamarBlue cell proliferation assay. It is filed as cell-based, human. The following applies: 120 hours drug exposure. The protocol: as §1, §2
Setting [7] is: crystal violet procedure, Table 7, normal cells, read-out: Cytotoxic Activity, CCD18co.
Where [8] appears, read: crystal violet procedure, Table 7, normal cells, read-out: Cytotoxic Activity, Det551.
Setting [9] is: crystal violet procedure, Table 7, high TS.

Take “5-(2-Bromovinyl)-2′-Deoxyuridine Phenyl N-Methoxy-L-alaninyl Phosphoramidate [NB1011]”: the IC50 with MCF7TDX [1] worked out at 2 µM; with CCd18co (setting [7]) it was 461 µM; with CCd18co (crystal violet, 72 hours, normal colon epithelium, read-out: IC50 CCD18co), 408 µM; in the data set with Det551 (setting [8]) it was 263 µM; in the data set on Det551 (crystal violet, 72 hours, normal skin, read-out: IC50 Det551), 356 µM; in the data set on HT1080 #12, 4.3 µM. The IC50 in the data set on MCF7TDX [2] (setting [9]) was found to be 4.2 µM.
Turning to `O=c1[nH]c(=O)n([C@H]2C[C@H](O)[C@@H](CO)O2)cc1/C=C/C=C\Br` (single isomer, unassigned; isomer 1) [NB1024 Isomer 1, 5-(4-Bromo-1E,3Z-butadienyl)-2′-dexoyuridine], the IC50 was greater than 300 µM in the data set with CCd18co (setting [7]), 10.1 µM with HT1080 #12 and 9.8 µM in the data set with MCF7TDX [2] (setting [9]). Also, in the data set with normal and tumor cells, the “cytotoxic / growth inhibiting activity in words” value is recorded as “significantly greater growth inhibiting activity”.
With `O=c1[nH]c(=O)n([C@H]2C[C@H](O)[C@@H](CO)O2)cc1/C=C/C=C/Br` (single isomer, unassigned; isomer 2) [NB1024 Isomer 2, 5-(4-Bromo-1E,3E-butadienyl)-2′-dexoyuridine], the IC50 with Det551 (setting [8]), in the data set on HT1080 #12 and in the data set with MCF7TDX [2] (setting [9]) was greater than 300 µM each time.
Take `O=c1[nH]c(=O)n([C@H]2C[C@H](O)[C@@H](CO)O2)cc1/C=C/Br` [BVDU, (E)-5-(2-Bromovinyl)-2′-deoxyuridine]: the IC50 at 72 h in [3] (CCD18co cells (normal colon epithelium), read-out: Cytotoxic Activity, CCD18co) was greater than 1000 µM; in [3] (Det551 cells (normal skin), read-out: Cytotoxic Activity, Det551), greater than 1000 µM. Further, the “BVdU level in cell lysate” value in the data set on MCF7TDX [4] came to 39.0 HPLC peak area at 300 nm; in the data set on MCF7 it was 90.8 HPLC peak area at 300 nm; with H630R10 [5], 26.3 HPLC peak area at 300 nm. Also, the “BvdUMP/(BVdUMP + BVdU) × 100” value with MCF7TDX [4] was 21.2; in the data set with MCF7 it was 44.2; with H630R10 [5], less than 4. In addition, the IC50 with MCF7TDX [2] (Homo sapiens) was less than 0.8 µM.
For `COC(=O)C(C)NP(=O)(OCC1OC(n2ccc(=O)[nH]c2=O)CC1O)Oc1ccccc1` (centres unmarked) [NB1025], the IC50 in the data set on H630R10 [6] amounted to 192 µM. For the same compound, in the data set with normal and tumor cells, the “cytotoxic / growth inhibiting activity in words” value was “active”.
In the case of `O=c1ccn(C2CC(O)C(CO)O2)c(=O)[nH]1` (centres unmarked) [NB1026], in the data set with normal and tumor cells, the “cytotoxic / growth inhibiting activity in words” value is reported as “little detectable activity”.
